Experimental data reported in patent publication US10053497B2, “Therapeutic epitopes and uses thereof” (OXFORD UNIVERSITY INNOVATION LIMITED, priority 2002, dated 2018).

What was measured:
[1] = tested on: PBMC from coeliac subjects; assay: Immunomagnetic bead depletion (CD4, CD8, β7, αE) of PBMC followed by IFNγ ELISpot; format: cell-based, human; settings: 0.1 μM
tTG = target: T1, tTG (UniProt P08587); assay: Deamidation of A-gliadin 56-75 by tTG (HPLC, amino acid sequencing); format: biochemical, guinea pig; settings: tTG 50 μg/ml, 37° C., 2 hours
T1 construct: purchased Sigma T-5398
T1 sequence (P08587 1-690): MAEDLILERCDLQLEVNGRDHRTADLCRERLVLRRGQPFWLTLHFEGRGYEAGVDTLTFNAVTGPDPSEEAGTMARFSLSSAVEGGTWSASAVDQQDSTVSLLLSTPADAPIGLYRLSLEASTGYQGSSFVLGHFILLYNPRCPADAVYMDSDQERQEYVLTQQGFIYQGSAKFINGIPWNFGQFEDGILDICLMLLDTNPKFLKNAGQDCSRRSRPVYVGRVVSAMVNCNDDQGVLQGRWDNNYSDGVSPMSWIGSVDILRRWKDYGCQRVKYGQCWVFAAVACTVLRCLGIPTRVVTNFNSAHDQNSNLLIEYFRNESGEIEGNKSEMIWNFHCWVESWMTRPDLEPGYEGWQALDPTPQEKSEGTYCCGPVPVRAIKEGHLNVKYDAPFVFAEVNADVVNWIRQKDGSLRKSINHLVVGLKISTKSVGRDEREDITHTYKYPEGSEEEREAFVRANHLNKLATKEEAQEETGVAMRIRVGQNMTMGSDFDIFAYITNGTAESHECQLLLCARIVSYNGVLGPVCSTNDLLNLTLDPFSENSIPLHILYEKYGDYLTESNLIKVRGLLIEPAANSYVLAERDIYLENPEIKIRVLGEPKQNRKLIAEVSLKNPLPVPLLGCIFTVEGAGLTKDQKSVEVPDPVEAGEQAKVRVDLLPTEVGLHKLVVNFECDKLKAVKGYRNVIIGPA
Method: A-gliadin 56-75 […] (SEQ ID NO:5) (0.1 μM) was incubated with tTG (50 μg/ml) at 37° C. for 2 hours. A single product was identified and purified by reverse phase HPLC. Amino acid analysis allowed % deamidation (Q→E) of each Gln residue in A-gliadin 56-75 (SEQ ID NO:5) attributable to tTG to be calculated (vertical axis).
Coeliac disease subjects following a gluten free diet, consumed 4 slices of gluten-containing bread (50 g/slice, Sainsbury's “standard white sandwich bread”) daily for 3 or 10 days. EMA was assessed the week before and up to two months after commencing the bread challenge. […] Peptides were assessed in duplicate wells, and Mycobacterium tuberculosis purified protein derivative (PPD RT49) (Serum Institute; Copenhagen, Denmark) (20 μg/ml) was included as a positive control in all assays. […] Digestion of gliadin was verified by SDS-PAGE and protein concentration assessed. α-Chymotrypsin-digested gliadin (640 μg/ml) and synthetic gliadin peptides (15-mers: 160 μg/ml, other peptides: 0.1 mM) were individually treated with tTG (Sigma; T-5398) ([…]) in PBS+CaCl2 1 mM for 2 h at 37° C. […] Deamidation of glutamyl residues was defined as the amount (pmol) of glutamate recovered expressed as a percent of the combined amount of glutamine and glutamate recovered in cycles 2, 4, 8, 10, 15 and 17 of the amino acid sequencing. […]

[2] = tested on: PBMC from coeliac disease subjects; assay: IFNγ ELISPOT with PBMC of coeliac disease subjects after bread/gluten challenge (agonist bioactivity of peptides); format: cell-based, human; settings: for Dose response: n=8
[3] = tested on: PBMC from coeliac disease subjects; assay: HLA class II restriction: IFNγ ELISPOT after preincubation of PBMC with anti-HLA-DR, -DQ, -DP antibodies; format: cell-based, human; settings: PBMC day 6, long-term GFD; tTG-gliadin 100, peptide 50, PPD 5 mcg/ml
[4] = tested on: PBMC of newly diagnosed coeliac subjects; assay: IFNγ ELISpot in newly diagnosed coeliac disease: duration of gluten free diet before gluten challenge; format: cell-based, human
[5] = tested on: PBMC of HLA-DQ2+ coeliac subjects; assay: IFNγ ELISpot, comprehensive gliadin epitope mapping in HLA-DQ2+ coeliac subjects after gluten challenge; format: cell-based, human; settings: after gluten challenge
Outline: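 PBMC (2-8×10^5/well) from HLA-DQ2+ coeliac subjects on gluten-free diet were taken before and on day 6/7 after 3-day bread challenge. They were incubated overnight with 20mer peptides or pools (20 μg/ml each), ± tTG deamidation (tTG 64 μg/ml in wells), in RPMI/10% human AB serum. Net sfc/million minus blank; single-peptide responses as % of P04722 77-93 QE85.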

Sequence: LQLQPFPQPELPYPQPQSFP [tTG treated A-gliadin 56-75]
- IFN-g ELISPOT response of CD8 depleted PBMC, Subject 4 [1]: 29 spot forming cells per million CD8 depleted PBMC
- IFN-g ELISPOT response of CD8 depleted PBMC, Subject 6 [1]: 535 spot forming cells per million CD8 depleted PBMC

Sequence: LQLQPFPQPQLPYPQPQSFP [A-gliadin 56-75]
- Glutamine residue deamidated by tTG (tTG): Q65 (SEQ ID NO:5) was preferentially deamidated by tTG

Sequence: QLQPFPQPELPYPQPQS [A-gliadin 57-73 QE65]
- Dose response ([2]; 0.025 mcg/ml): 1 % G01E maximal response
- Dose response ([2]; 0.05 mcg/ml): 8 % G01E maximal response
- Dose response ([2]; 0.1 mcg/ml): 10 % G01E maximal response
- Dose response ([2]; 0.25 mcg/ml): 22 % G01E maximal response
- Dose response ([2]; 0.5 mcg/ml): 38 % G01E maximal response
- Dose response ([2]; 1 mcg/ml): 43 % G01E maximal response
- Dose response ([2]; 2.5 mcg/ml): 52 % G01E maximal response
- Dose response ([2]; 5 mcg/ml): 70 % G01E maximal response
- Dose response ([2]; 10 mcg/ml): 81 % G01E maximal response
- ELISpot response as % A-gliadin 57-73 QE65, E-substituted ([2]; 25 mcg/ml, glutamate-substituted peptide, 4 subjects): 100%
- Dose response ([2]; 25 mcg/ml): 95 % G01E maximal response
- ELISpot response as % A-gliadin 57-73 QE65, Wild type ([2]; 25 mcg/ml, unmodified wild type peptide, 4 subjects, blank 5 (1)%): 18 (7) %
- ELISpot response as % A-gliadin 57-73 QE65, Wildtype + tTG ([2]; 25 mcg/ml, wild type treated with tTG, 4 subjects): 87 (7) %
- Bioactivity % of unmodified A-gliadin 57-73 QE65 (G) ([2]; 50 mcg/ml, PBMC from 8 subjects, blank 7.1%): (G) (mean 100%, 95% CI 97-104) and blank (no peptide, bl) (mean 7.1%,
- Dose response ([2]; 50 mcg/ml): 90 % G01E maximal response
- Dose response ([2]; 100 mcg/ml): 85 % G01E maximal response
- Mean IFNγ ELISPOT response relative to the immunodominant epitope (Glu65) ([2]; A-gliadin 57-73 with the named amino acid at position 65, 50 μg/ml, 3 subjects, day 6): 100%
- Elisopt response TG ([2]; peptide treated with transglutaminase, 3 subjects, value (range), A-gliadin 57-73 E65 = 100): 100(100)
- γIFN ELISpot response after gluten challenge ([2]; relative to the dominant epitope = 100%): 100%
- ELISpot response after preincubation with anti-HLA-DQ antibody (DQ-) [3]: 22 % inhibition
- ELISpot response after preincubation with anti-HLA-DR antibody (DR-) [3]: 90 % inhibition
- IFNγ ELISpot response, Day 0, 1 week gluten free diet ([4]; GFD: 1 week): 1 IFNγ specific spots/million PP
- IFNγ ELISpot response, Day 6 of gluten challenge, 1 week gluten free diet ([4]; GFD: 1 week): 4 IFNγ specific spots/million PP
- IFNγ ELISpot response, Day 0, 2 weeks gluten free diet ([4]; GFD: 2 weeks): 2 IFNγ specific spots/million PP
- IFNγ ELISpot response, Day 6 of gluten challenge, 2 weeks gluten free diet ([4]; GFD: 2 weeks): 28 IFNγ specific spots/million PP
- IFNγ ELISpot response, Day 0, 8 weeks gluten free diet ([4]; GFD: 8 weeks): 1 IFNγ specific spots/million PP
- IFNγ ELISpot response, Day 6 of gluten challenge, 8 weeks gluten free diet ([4]; GFD: 8 weeks): 48 IFNγ specific spots/million PP
- IFNγ ELISpot response, Day 0, no gluten free diet ([4]; GFD: none): 5 IFNγ specific spots/million PP
- IFNγ ELISpot response, Day 6 of gluten challenge, no gluten free diet ([4]; GFD: none): 0 IFNγ specific spots/million PP
- Share of peripheral blood T cells secreting IFN-γ in response to gliadin that recognise the epitope [5]: at least 40%
